From patent US11542273B2, “Amide compound having bet proteolysis-inducing action and medicinal application thereof” (MITSUBISHI TANABE PHARMA CORPORATION, priority 2018, dated 2023)

Assays:
BRD4 protein = BRD4 protein (Homo sapiens (Human), UniProt O60885); assay: BRD4 protein degradation inducing action in cancer cells (immunofluorescence, Operetta); format: cell-based; conditions: LNCaP cells, 6 hr treatment, fluorescence intensity
Protocol: The degradation inducing action of the compound of the present invention on BRD4 protein in cancer cells was evaluated in vitro using human prostate cancer LNCaP cells. LNCaP cells were suspended in 10% FBS/RPMI1640, seeded in a 96 well Cell carrier plate (Perkin Elmer) and cultured at 5% CO2, 37° C. overnight. A test compound dissolved in DMSO was diluted with 10% FBS/RPMI1640 and added and the cells were further cultured for 6 hr. After culturing, the cells were immobilized with 4% para-formaldehyde/PBS and further subjected to a permeation treatment with 0.25% Triton X-100/PBS. Thereafter, the cells were blocked with 10% BSA/PBS, a solution containing Anti-Brd4 antibody (Abcam) or Anti-BRD4 (Sigma-Aldrich) as the primary antibody was added and the cells were incubated at 4° C. overnight. Thereafter, as the secondary antibody, a solution containing secondary antibody A shown below was added to Example compounds 1-190, 223 and 224, and a solution containing secondary antibody B shown below was added to Example compounds 191-222, and 0.5 μg/mL Hoechst 33342 (Sigma-Aldrich) and 14 μM Acti-Stain 555 Fluorescent Phalloidin (Cytoskeleton) were further added. After incubation for 1 hr, BRD4 protein amount was measured by Operetta (Perkin Elmer) as fluorescence intensity.
• Anti-Rabbit IgG(H+L), F(ab′)2 Fragment (Alexa Fluor 488 Conjugate) (Cell Signaling Technology), fluorescence intensity was measured at excitation: 495 nm, emission: 519 nm. Secondary Antibody B • Goat anti-Rabbit IgG(H+L) Cross-Adserbed Secondary Antibody (Alexa Fluor 546) (Thermo Fisher Scientific) fluorescence intensity was measured at excitation: 560 nm, emission: 572 nm.
The BRD4 protein degradation inducing activity of the compound of the present invention in LNCaP cells is shown in DC50 value in Table 3. The DC50 value is a concentration of the compound showing 50% fluorescence intensity when the fluorescence intensity thereof under compound untreated condition is 100%. It was calculated from the straight line connecting the fluorescence intensity at two points enclosing the 50% fluorescence intensity and the compound concentration.

[1] = test system: human prostate cancer LNCaP cells; assay: Cytotoxic action on cancer cells (WST-8, 96 hr); format: cell-based; conditions: Homo sapiens, LNCaP, 96 h, read-out: LNCaP cytotoxic activity: IC50
Protocol: The cytotoxic action of the compound of the present invention against human cancer cells was evaluated in vitro. In this experiment, (+)-JQ1 (Nature volume 468, pages 1067-1073 (23 Dec. 2010)) known to have an inhibitory activity on the binding of BRD4 protein and a ligand therefor was used as a positive control drug. Respective cells were suspended in 10% FBS/RPMI1640, seeded in a 96 well plate and cultured at 5% CO2, 37° C. overnight. A test compound dissolved in DMSO was diluted with 10% FBS/RPMI1640 and added and the cells were further cultured for 96 hr. After culturing, the viable cell number was measured using a cell number measurement WST-8 kit (Kishida Chemical Co., Ltd.). As a control, the measurement was performed under conditions free of the test compound. The cytotoxic activity of the compound of the present invention against human prostate cancer LNCaP cells is shown in IC50 value in Table 1. […] It was calculated from the straight line connecting the cell survival rate at two points enclosing the 50% cell survival rate and the compound concentration. In addition, the cytotoxic activity against respective cancer cells of human acute myeloid leukemia MV-4-11 cell, human chronic myeloid leukemia K562 cell, human multiple myeloma MM.1S cell, human diffuse large B-cell lymphoma SU-DHL-6 cell, human T-cell leukemia Jurkat cells, human Burkitt lymphoma Raji cell, human castration-resistant prostate cancer PC-3 cell, human ovarian cancer A2780 cell, human bladder cancer 5637 cell, human breast cancer ZR-75-1 cell, human triple negative breast cancer MDA-MB-231 cell, human uterine sarcoma MES-SA cell, human gastric cancer SNU-16 cell, human non-small cell lung cancer NCI-H1975 cell, human small cell lung cancer NCI-H82 cell, human large cell lung cancer NCI-H460 cell, human colorectal cancer HCT116 cell, human glioma U-87 MG cell, human pancreatic cancer AsPC-1 cell, and human liver cancer Hep G2 cell is shown in IC50 value in Table 2.

Row | Compound | DC50 (BRD4 protein) [nM] | IC50 [1] [nM]
1 | COC(=O)C[C@@H]1N=C(c2ccc(-c3ccc(NCC(=O)N[C@H](C(=O)N4C[C@H](O)C[C@H]4C(=O)N[C@@H](C)c4ccc(-c5scnc5C)cc4)C(C)(C)C)cc3)cc2)c2c(sc(C)c2C)-n2c(C)nnc21 [Example 45, methyl [(6S)-4-(4′-{[2-({(2S)-1-[(2S,4R)-4-hydroxy-2-({(1S)-1-[4-(4-methyl-1,3-thiazol-5-yl)phenyl]ethyl}carbamoyl)pyrrolidin-1-yl]-3,3-dimethyl-1-oxobutan-2-yl}amino)-2-oxoethyl]amino}[1,1′-biphenyl]-4-yl)-2,3,9-trimethyl-6H-thieno[3,2-f][1,2,4]triazolo[4,3-a] [1,4]diazepin-6-yl]acetate] | 0.051 | 0.32
2 | COC(=O)C[C@@H]1N=C(c2ccc(Nc3cccc(OCC(=O)N[C@H](C(=O)N4C[C@H](O)C[C@H]4C(=O)N[C@@H](C)c4ccc(-c5scnc5C)cc4)C(C)(C)C)c3)cc2)c2c(sc(C)c2C)-n2c(C)nnc21 [Example 47, methyl [(6S)-4-(4-{3-[2-({(2S)-1-[(2S,4R)-4-hydroxy-2-({(1S)-1-[4-(4-methyl-1,3-thiazol-5-yl)phenyl]ethyl}carbamoyl)pyrrolidin-1-yl]-3,3-dimethyl-1-oxobutan-2-yl}amino)-2-oxoethoxy]anilino}phenyl)-2,3,9-trimethyl-6H-thieno[3,2-f][1,2,4]triazolo[4,3-a][1,4]diazepin-6-yl]acetate] | 0.45 | 0.42
3 | COC(=O)C[C@@H]1N=C(c2ccc(-c3ccc(OCC(=O)N[C@H](C(=O)N4C[C@H](O)C[C@H]4C(=O)N[C@@H](C)c4ccc(-c5scnc5C)cc4)C(C)(C)C)cc3C)cc2)c2c(sc(C)c2C)-n2c(C)nnc21 [Example 49, methyl [(6S)-4-{4′-[2-({(2S)-1-[(2S,4R)-4-hydroxy-2-({(1S)-1-[4-(4-methyl-1,3-thiazol-5-yl)phenyl]ethyl}carbamoyl)pyrrolidin-1-yl]-3,3-dimethyl-1-oxobutan-2-yl}amino)-2-oxoethoxy]-2′-methyl[1,1′-biphenyl]-4-yl}-2,3,9-trimethyl-6H-thieno[3,2-f][1,2,4]triazolo[4,3-a] [1,4]diazepin-6-yl]acetate] | 0.24 | 0.12
4 | COC(=O)C[C@@H]1N=C(c2ccc(-c3ccc(OC(C)C(=O)N[C@H](C(=O)N4C[C@H](O)C[C@H]4C(=O)N[C@@H](C)c4ccc(-c5scnc5C)cc4)C(C)(C)C)cc3)cc2)c2c(sc(C)c2C)-n2c(C)nnc21 (stereo partly drawn) [Example 50, methyl [(6S)-4-(4′-{[1-({(2S)-1-[(2S,4R)-4-hydroxy-2-({(1S)-1-[4-(4-methyl-1,3-thiazol-5-yl)phenyl]ethyl}carbamoyl)pyrrolidin-1-yl]-3,3-dimethyl-1-oxobutan-2-yl}amino)-1-oxopropan-2-yl]oxy}[1,1′-biphenyl]-4-yl)-2,3,9-trimethyl-6H-thieno[3,2-f][1,2,4]triazolo[4,3-a] [1,4]diazepin-6-yl]acetate] | 0.61 | 0.25
5 | COC(=O)C[C@@H]1N=C(c2ccc(-c3ccc(SCC(=O)N[C@H](C(=O)N4C[C@H](O)C[C@H]4C(=O)N[C@@H](C)c4ccc(-c5scnc5C)cc4)C(C)(C)C)cc3)cc2)c2c(sc(C)c2C)-n2c(C)nnc21 [Example 53, methyl [(6S)-4-(4′-{[2-({(2S)-1-[(2S,4R)-4-hydroxy-2-({(1S)-1-[4-(4-methyl-1,3-thiazol-5-yl)phenyl]ethyl}carbamoyl)pyrrolidin-1-yl]-3,3-dimethyl-1-oxobutan-2-yl}amino)-2-oxoethyl]sulfanyl}[1,1′-biphenyl]-4-yl)-2,3,9-trimethyl-6H-thieno[3,2-f][1,2,4]triazolo[4,3-a] [1,4]diazepin-6-yl]acetate] | 0.091 | 0.2
6 | COC(=O)C[C@@H]1N=C(c2ccc(-c3cccc(C(=O)N[C@H](C(=O)N4C[C@H](O)C[C@H]4C(=O)N[C@@H](C)c4ccc(-c5scnc5C)cc4)C(C)(C)C)c3)cc2)c2c(sc(C)c2C)-n2c(C)nnc21 [Example 60, methyl {(6S)-4-[3′-({(2S)-1-[(2S,4R)-4-hydroxy-2-({(1S)-1-[4-(4-methyl-1,3-thiazol-5-yl)phenyl]ethyl}carbamoyl)pyrrolidin-1-yl]-3,3-dimethyl-1-oxobutan-2-yl}carbamoyl)[1,1′-biphenyl]-4-yl]-2,3,9-trimethyl-6H-thieno[3,2-f][1,2,4]triazolo[4,3-a][1,4]diazepin-6-yl}acetate] | 0.74 | 0.12
7 | COC(=O)C[C@@H]1N=C(c2ccc(-c3ccc(OCC(=O)N[C@H](C(=O)N4C[C@H](O)C[C@H]4C(=O)N[C@@H](C)c4ccc(-c5scnc5C)cc4)C(C)(C)C)nc3)cc2)c2c(sc(C)c2C)-n2c(C)nnc21 [Example 63, methyl [(6S)-4-(4-{6-[2-({(2S)-1-[(2S,4R)-4-hydroxy-2-({(1S)-1-[4-(4-methyl-1,3-thiazol-5-yl)phenyl]ethyl}carbamoyl)pyrrolidin-1-yl]-3,3-dimethyl-1-oxobutan-2-yl}amino)-2-oxoethoxy]pyridin-3-yl}phenyl)-2,3,9-trimethyl-6H-thieno[3,2-f][1,2,4]triazolo[4,3-a][1,4]diazepin-6-yl]acetate] | 0.11 | 0.037
8 | COC(=O)C[C@@H]1N=C(c2ccc(-c3cc(C(=O)N[C@H](C(=O)N4C[C@H](O)C[C@H]4C(=O)N[C@@H](C)c4ccc(-c5scnc5C)cc4)C(C)(C)C)ccc3F)cc2)c2c(sc(C)c2C)-n2c(C)nnc21 [Example 106, methyl {(6S)-4-[2′-fluoro-5′-({(2S)-1-[(2S,4R)-4-hydroxy-2-({(1S)-1-[4-(4-methyl-1,3-thiazol-5-yl)phenyl]ethyl}carbamoyl)pyrrolidin-1-yl]-3,3-dimethyl-1-oxobutan-2-yl}carbamoyl)[1,1′-biphenyl]-4-yl]-2,3,9-trimethyl-6H-thieno[3,2-f][1,2,4]triazolo[4,3-a][1,4]diazepin-6-yl}acetate] | 0.6 | 0.58
9 | COC(=O)C[C@@H]1N=C(c2ccc(-c3cccc(C(=O)N[C@H](C(=O)N4C[C@H](O)C[C@H]4C(=O)N[C@@H](C)c4ccc(-c5scnc5C)cc4)C(C)(C)C)n3)cc2)c2c(sc(C)c2C)-n2c(C)nnc21 [Example 113, methyl [(6S)-4-{4-[6-({(2S)-1-[(2S,4R)-4-hydroxy-2-({(1S)-1-[4-(4-methyl-1,3-thiazol-5-yl)phenyl]ethyl}carbamoyl)pyrrolidin-1-yl]-3,3-dimethyl-1-oxobutan-2-yl}carbamoyl)pyridin-2-yl]phenyl}-2,3,9-trimethyl-6H-thieno[3,2-f][1,2,4]triazolo[4,3-a][1,4]diazepin-6-yl]acetate] | 0.075 | 0.096
10 | COC(=O)C[C@@H]1N=C(c2ccc(-c3ccc(OC(F)(F)C(=O)N[C@H](C(=O)N4C[C@H](O)C[C@H]4C(=O)N[C@@H](C)c4ccc(-c5scnc5C)cc4)C(C)(C)C)cc3)cc2)c2c(sc(C)c2C)-n2c(C)nnc21 [Example 122, methyl [(6S)-4-{4′-[1,1-difluoro-2-({(2S)-1-[(2S,4R)-4-hydroxy-2-({(1S)-1-[4-(4-methyl-1,3-thiazol-5-yl)phenyl]ethyl}carbamoyl)pyrrolidin-1-yl]-3,3-dimethyl-1-oxobutan-2-yl}amino)-2-oxoethoxy][1,1′-biphenyl]-4-yl}-2,3,9-trimethyl-6H-thieno[3,2-f][1,2,4]triazolo[4,3-a][1,4]diazepin-6-yl]acetate] | 0.097 | 0.4
